The results in this text go back to patent publication US8133905B2, “Biphenyl compounds useful as muscarinic receptor antagonists” (Theravance, Inc., priority 2005, dated 2012).

Where a name gives a salt, the structure may show the parent alone.

A short description of this data set: Dynamic moisture sorption (DMS) assessment. It is filed as physicochemical. Particulars: exposed to up to 90% RH. As to the method:
A dynamic moisture sorption (DMS) assessment (also known as a moisture sorption-desorption profile) was performed for samples of the crystalline diacetate salt using a VTI atmospheric microbalance, SGA-100 system (VTI Corp., Hialeah, Fla. 33016). A sample size of approximately 10 mg was used and the humidity was set at the ambient value at the start of the analysis. A typical DMS analysis consisted of three scans: ambient to 2% relative humidity (RH), 2% RH to 90% RH, 90% RH to 5% RH at a scan rate of 5% RH/step. The mass was measured every two minutes and the RH was changed to the next value (+/−5% RH) when the mass of the sample was stable to within 0.01% for 5 consecutive points.
As to `CN(CCN1CCC(OC(=O)Nc2ccccc2-c2ccccc2)CC1)C(=O)c1cccc(C(=O)NCCNCc2ccc(O)cc2)c1` [crystalline diacetate salt, biphenyl-2-ylcarbamic acid 1-[2-({3-[2-(4-hydroxybenzylamino)ethylcarbamoyl]benzoyl}methylamino)ethyl]piperidin-4-yl ester], the “weight gain in DMS trace (reversible sorption/desorption profile)” value is “less than 18%”.
The same measure for `CN(CCN1CCC(OC(=O)Nc2ccccc2-c2ccccc2)CC1)C(=O)c1cccc(C(=O)NCCNCc2ccc(O)cc2)c1` [crystalline dipropionate salt, Biphenyl-2-ylcarbamic Acid 1-[2-({3-[2-(4-Hydroxybenzylamino)ethylcarbamoyl]benzoyl}methylamino)ethyl]piperidin-4-yl Ester]: “less than 11%”; for `CN(CCN1CCC(OC(=O)Nc2ccccc2-c2ccccc2)CC1)C(=O)c1cccc(C(=O)NCCNCc2ccc(O)cc2)c1` [crystalline monooxalate salt, Biphenyl-2-ylcarbamic Acid 1-[2-({3-[2-(4-Hydroxybenzylamino)ethylcarbamoyl]benzoyl}methylamino)ethyl]piperidin-4-yl Ester]: “less than 14%”.
